Experiment [1] concerns the target T1, recombinant human catalytic domain of MMP-14 (Homo sapiens, UniProt P50281).
T1 construct: 177 amino acids corresponding to Tyr89-Gly265 of mature human enzyme; purchased Chemicon International, Inc. CC1041
Kind of experiment: In vitro fluorescence assay of MMP-14 activity. Type of experiment: biochemical. To be noted: Table 1; unit inferred.

In experiment [2] the target is T2, recombinant human catalytic domain of MMP-13 (Homo sapiens, UniProt P45452).
T2 construct: catalytic domain of MMP-13 (165 amino acids, residues 104-268, 19 kDa)
Kind of experiment: In vitro fluorescence assay of MMP-13 activity. The settings on record: Table 1; unit inferred. In kind it is biochemical.

Experiment [3] concerns bovine articular cartilage treated with Interleukin 1 alpha (IL-1α). Kind of experiment: Bovine articular cartilage explant cultures: inhibition of degradation of proteoglycan. To be noted: inhibitory effect expressed as percentage, concentration not printed. In kind it is cell-based. The method, boiled down:
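Bovine metacarpal cartilage discs (6 mm), equilibrated in serum-free DMEM-based medium, were treated with 5 ng/ml IL-1 plus compound (working solutions 0.1-10 μg/ml), with medium collected and replaced on days 1, 2 and 3. Released proteoglycan was measured by DMMB absorbance at 520 nm against chondroitin sulphate standards, expressed as μg per mg cartilage, and inhibition given as percentage.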

The target of experiment [4] is T3, purified recombinant human Aggrecanase-2 (Ag2t-Phe628-Strep) (Homo sapiens, UniProt Q9UNA0).
T3 construct: the form used is denoted as Ag2t-Phe628-Strep (MW=41,737)
T3 sequence (Q9UNA0 262-628): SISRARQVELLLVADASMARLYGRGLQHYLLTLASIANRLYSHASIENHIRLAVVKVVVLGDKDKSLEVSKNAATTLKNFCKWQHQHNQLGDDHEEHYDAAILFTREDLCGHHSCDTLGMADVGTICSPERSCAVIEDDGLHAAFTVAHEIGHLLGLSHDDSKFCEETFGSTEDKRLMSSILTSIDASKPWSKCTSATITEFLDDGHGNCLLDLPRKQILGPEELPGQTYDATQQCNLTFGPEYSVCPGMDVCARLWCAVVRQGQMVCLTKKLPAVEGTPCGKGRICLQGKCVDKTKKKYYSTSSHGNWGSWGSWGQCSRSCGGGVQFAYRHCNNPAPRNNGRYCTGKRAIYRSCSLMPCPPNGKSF
Kind of experiment: In vitro fluorescence screen for Aggrecanase-2 inhibitors. Type of experiment: biochemical. To be noted: Table 1; read-out: Agg 2 IC50.

Experiment [5] has as its target T4, purified recombinant human Aggrecanase-1 (rAgg1) (Homo sapiens, UniProt O75173).
T4 sequence (O75173 213-837): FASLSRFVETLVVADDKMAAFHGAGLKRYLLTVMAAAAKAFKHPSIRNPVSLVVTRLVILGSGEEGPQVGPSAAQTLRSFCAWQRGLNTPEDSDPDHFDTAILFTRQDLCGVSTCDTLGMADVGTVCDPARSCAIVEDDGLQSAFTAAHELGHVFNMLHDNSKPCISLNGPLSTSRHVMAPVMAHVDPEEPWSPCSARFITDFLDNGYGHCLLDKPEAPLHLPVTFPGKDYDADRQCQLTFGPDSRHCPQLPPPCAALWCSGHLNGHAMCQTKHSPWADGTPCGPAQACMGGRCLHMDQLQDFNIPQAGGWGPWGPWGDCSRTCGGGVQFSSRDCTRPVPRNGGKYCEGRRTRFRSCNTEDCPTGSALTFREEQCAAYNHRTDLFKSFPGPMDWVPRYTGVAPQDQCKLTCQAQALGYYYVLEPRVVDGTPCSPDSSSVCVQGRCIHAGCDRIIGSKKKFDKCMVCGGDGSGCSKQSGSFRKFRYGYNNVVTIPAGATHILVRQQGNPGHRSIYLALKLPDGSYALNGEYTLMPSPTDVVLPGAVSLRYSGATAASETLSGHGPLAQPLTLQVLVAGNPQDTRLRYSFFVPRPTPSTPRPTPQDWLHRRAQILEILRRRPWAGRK
Kind of experiment: In vitro fluorescence screen for Aggrecanase-1 inhibitors. To be noted: Table 1; for IC50: read-out: Agg1 IC50; for Ki: enzyme not given, column follows Agg1 IC50, read-out: Ki. Type of experiment: biochemical.

The target in another experiment is T5, MMP-1 (Homo sapiens, UniProt P03956).
T5 sequence (P03956 100-469): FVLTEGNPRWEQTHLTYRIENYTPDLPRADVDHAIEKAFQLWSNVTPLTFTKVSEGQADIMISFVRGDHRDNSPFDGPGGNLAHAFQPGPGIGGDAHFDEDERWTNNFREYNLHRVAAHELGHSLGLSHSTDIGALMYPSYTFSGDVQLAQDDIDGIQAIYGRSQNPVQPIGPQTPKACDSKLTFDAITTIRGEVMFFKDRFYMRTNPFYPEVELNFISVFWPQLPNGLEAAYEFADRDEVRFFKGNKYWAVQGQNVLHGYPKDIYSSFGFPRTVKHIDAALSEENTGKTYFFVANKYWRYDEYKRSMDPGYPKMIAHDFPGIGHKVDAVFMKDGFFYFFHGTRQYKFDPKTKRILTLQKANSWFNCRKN
Kind of experiment: MMP-1 of Table 1. In kind it is biochemical. The settings on record: for IC50: unit inferred; for MMP-1: unit not given.

Another experiment addresses T6, recombinant human MMP-2 (Homo sapiens, UniProt P08253).
T6 sequence (P08253 110-660): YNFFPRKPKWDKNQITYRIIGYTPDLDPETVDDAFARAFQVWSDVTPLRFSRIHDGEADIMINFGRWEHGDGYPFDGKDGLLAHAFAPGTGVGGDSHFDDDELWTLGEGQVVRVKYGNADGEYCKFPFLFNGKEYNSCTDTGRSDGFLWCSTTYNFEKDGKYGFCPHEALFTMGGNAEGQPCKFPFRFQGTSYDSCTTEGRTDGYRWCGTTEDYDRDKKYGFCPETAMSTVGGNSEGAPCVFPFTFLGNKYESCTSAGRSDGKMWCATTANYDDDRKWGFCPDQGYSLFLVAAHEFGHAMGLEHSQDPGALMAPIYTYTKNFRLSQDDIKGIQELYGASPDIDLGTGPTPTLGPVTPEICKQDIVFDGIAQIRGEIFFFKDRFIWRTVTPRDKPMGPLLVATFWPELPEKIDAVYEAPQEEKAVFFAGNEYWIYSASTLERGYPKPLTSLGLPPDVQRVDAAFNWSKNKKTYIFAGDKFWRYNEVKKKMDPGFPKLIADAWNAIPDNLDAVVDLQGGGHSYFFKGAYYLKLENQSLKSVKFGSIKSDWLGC
Kind of experiment: In vitro fluorescence assay of MMP-2 activity.

The mark [6] stands for this setting: Table 1, first of two columns headed bovine.
Setting [7] is: Table 1, second of two columns headed bovine.

Bounds are passed on as bounds.

Method for recombinant human MMP-2: A continuous assay was used in which the substrate is a synthetic peptide containing a fluorescent group (7-methoxycoumarin; Mca), which is quenched by energy transfer to a 2,4-dinitrophenyl group. […] The source of enzyme in the assay was the recombinant human MMP-2 (66 kDa; Oncogene Research Products (catalog number PF023 from Calbiochem)). The substrate used was the peptide Mca-PQGL-(3-[2,4-dinitrophenyl]-L-2,3-diaminopropionyl)-AR-OH. The assay buffer consisted of 50 mM Hepes (pH 7.4), 100 mM NaCl, 5 mM CaCl2, and 0.005% Brij-35. […] The plates were then incubated at 30° C. for 15 minutes. The enzymatic reactions were initiated by adding the substrate to a final concentration of 20 μM, and mixing 10 times with a pipette. The final DMSO concentration in the assay was 6.0%.
Plots of the inhibitor concentration vs. the percent inhibition were fit to the following equation: y=(a−d)/[^1+(x/c)^b]+d, a general sigmoidal curve with Hill slope, a to d. x is the inhibitor concentration under test. y is the percent inhibition. a is the limiting response as x approaches zero. As x increases without bound, y tends toward its limit d. c is the inflection point (IC50) for the curve. That is, y is halfway between the lower and upper asymptotes when x=c. b is the slope factor or Hill coefficient.

The IC50 is the point on the concentration scale where inhibition reaches its midpoint. In the case of `O=C(O)CC[C@H](NC(=O)c1ccc(-c2ccccc2)cc1)C(=O)NC1CCCC1` [Example 8G, N^2-(1,1′-biphenyl-4-ylcarbonyl)-N^1-cyclopentyl-L-α-glutamine], the IC50 in experiment [1] was ~25 µM; in experiment [2], ~50 µM; in experiment [4], 0.614 µM; in experiment [5] it was 0.08 µM; at MMP-1, > 100 µM; on recombinant human MMP-2, ~50 µM. Further, the figures for the bovine in experiment [3] (setting [6]) and in experiment [3] (setting [7]) were 76% and 39%, respectively.
In the case of `O=C(O)CC[C@H](NC(=O)c1ccc(-c2ccccc2)cc1)C(=O)NC1C2CC3CC(C2)CC1C3` (stereo partly drawn) [Example 8H, N^1-2-adamantyl-N^2-(1,1′-biphenyl-4-ylcarbonyl)-L-α-glutamine], the half-maximal inhibitory concentration (IC50) in experiment [1] was ~25 µM; in experiment [2] it was ~50 µM; in experiment [4], 0.266 µM; in experiment [5], 0.2 µM; on MMP-1, > 100 µM; at recombinant human MMP-2, 3.31 µM. For the same molecule, the bovine came out at 85% in experiment [3] (setting [6]) and 67% in experiment [3] (setting [7]).
As usually defined, the Ki is the equilibrium dissociation constant of an inhibitor or competing ligand from its target. Take `O=C(O)CC[C@H](NC(=O)c1ccc(-c2ccccc2)cc1)C(=O)NCc1cccc(I)c1` [Example 8JJ, N^2-(1,1′-biphenyl-4-ylcarbonyl)-N^1-(3-iodobenzyl)-L-α-glutamine]: the IC50 in experiment [1] is > 200 µM; in experiment [2] it was 17 µM; in experiment [4] it was 1.1 µM; in experiment [5] it was 0.045 µM; on MMP-1, > 200 µM; at recombinant human MMP-2, 27 µM. Besides, the bovine in experiment [3] (setting [6]) is recorded as 70%; in experiment [3] (setting [7]), 17%. Also, in experiment [5], the Ki came to 0.033 µM.
Turning to `CCCCCCCNC(=O)[C@H](CCC(=O)O)NC(=O)c1ccc(-c2ccccc2)cc1` [Example 8JJJ, N^2-(1,1′-biphenyl-4-ylcarbonyl)-N^1-heptyl-L-α-glutamine], the half-maximal inhibitory concentration (IC50) is > 200 µM in experiment [1]; 30 µM in experiment [2]; 0.3 µM in experiment [4]; 0.054 µM in experiment [5]; > 200 µM at MMP-1; > 20 µM at recombinant human MMP-2. For the same molecule, the bovine in experiment [3] (setting [6]) turned out to be 74%; in experiment [3] (setting [7]), 26%. Besides, the Ki in experiment [5] was 0.054 µM.
With `COc1ccc(CCNC(=O)[C@H](CCC(=O)O)NC(=O)c2ccc(-c3ccccc3)cc2)cc1OC` [Example 8L, N^2-(1,1′-biphenyl-4-ylcarbonyl)-N^1-[2-(3,4-dimethoxyphenyl)ethyl]-L-α-glutamine], the IC50 in experiment [1] was 21.5 µM; in experiment [2], ~50 µM; in experiment [4] it was 0.189 µM; in experiment [5], 0.055 µM; on MMP-1, > 100 µM; on recombinant human MMP-2 it was 10.5 µM. For the same molecule, the bovine in experiment [3] (setting [6]) is on record as 87%; in experiment [3] (setting [7]), 79%.
As to `COc1ccc(CCNC(=O)[C@H](CCC(=O)O)NC(=O)c2ccc(-c3ccccc3)cc2)cc1` [Example 8M, N^2-(1,1′-biphenyl-4-ylcarbonyl)-N^1-[2-(4-methoxyphenyl)ethyl]-L-α-glutamine], the IC50 in experiment [1] is 13 µM; in experiment [2], ~50 µM; in experiment [4], 0.856 µM; in experiment [5], 0.12 µM; against MMP-1, > 100 µM; on recombinant human MMP-2, 8 µM. In addition, the bovine worked out at 85% in experiment [3] (setting [6]) and 17% in experiment [3] (setting [7]).
Turning to `O=C(O)CC[C@H](NC(=O)c1ccc(-c2ccccc2)cc1)C(=O)NCc1ccc(F)c(C(F)(F)F)c1` [Example 8NNN, N^2-(1,1′-biphenyl-4-ylcarbonyl)-N^1-[4-fluoro-3-(trifluoromethyl)benzyl]-L-α-glutamine], the IC50 was > 50 µM in experiment [1]; 14 µM in experiment [2]; 1.75 µM in experiment [4]; 0.1 µM in experiment [5]; > 50 µM at MMP-1; > 10 µM at recombinant human MMP-2. Further, the bovine is 60% in experiment [3] (setting [6]) and 0% in experiment [3] (setting [7]). Besides, the Ki in experiment [5] turned out to be 0.219 µM.
Regarding `Cc1cccc(CNC(=O)[C@H](CCC(=O)O)NC(=O)c2ccc(-c3ccccc3)cc2)c1` [Example 8O, N^2-(1,1′-biphenyl-4-ylcarbonyl)-N^1-(3-methylbenzyl)-L-α-glutamine], the 50% inhibitory concentration (IC50) is ~22 µM in experiment [1]; 31.4 µM in experiment [2]; 1.3 µM in experiment [4]; 0.075 µM in experiment [5]; 5 µM at recombinant human MMP-2. Moreover, the bovine in experiment [3] (setting [6]) worked out at 69%; in experiment [3] (setting [7]) it was 34%. Moreover, the Ki in experiment [5] was 0.082 µM. Also, the MMP-1 entry on MMP-1 was “no inh”.
On to `COc1cccc(CNC(=O)[C@H](CCC(=O)O)NC(=O)c2ccc(-c3ccccc3)cc2)c1` [Example 8Q, N^2-(1,1′-biphenyl-4-ylcarbonyl)-N^1-(3-methoxybenzyl)-L-α-glutamine], for which the IC50 is ~22 µM in experiment [1]; 37.3 µM in experiment [2]; 0.4 µM in experiment [4]; 0.011 µM in experiment [5]; 6.1 µM on recombinant human MMP-2. The bovine was 66% in experiment [3] (setting [6]) and 24% in experiment [3] (setting [7]). For the same molecule, the Ki in experiment [5] was 0.031 µM. Moreover, the MMP-1 entry on MMP-1 is “no inh”.
`COc1cc(CNC(=O)[C@H](CCC(=O)O)NC(=O)c2ccc(-c3ccccc3)cc2)cc(OC)c1OC` [Example 8R, N^2-(1,1′-biphenyl-4-ylcarbonyl)-N^1-(3,4,5-trimethoxybenzyl)-L-α-glutamine]: the IC50 in experiment [1] is ~22 µM; in experiment [2] it was 42.4 µM; in experiment [4], 0.05 µM; in experiment [5], 0.016 µM; on recombinant human MMP-2 it was 10.4 µM. The bovine is 86% in experiment [3] (setting [6]) and 78% in experiment [3] (setting [7]). For the same molecule, the Ki in experiment [5] turned out to be 0.005 µM. For the same molecule, the MMP-1 entry on MMP-1 is “no inh”.

For the origin of these results see patent US7998965B2, “Glutamate aggrecanase inhibitors” (Wyeth LLC, priority 2005, dated 2011).
